Experimental data as given in the supplement of paper PMC8882468.

Key:
Experiment in all cases: CTG-3D luminescence at 96 h relative to day-0 seeding control (ratio to day 0); higher = more growth / less cytotoxicity; PDxO 3D drug screen (set 2), 96 h, CTG-3D normalised to day-0 seeding control.
HCI-002 = system: HCI-002 (organoid from a triple-negative breast cancer xenograft)
HCI-003.E2 = system: HCI-003.E2 (organoid from an ER-positive breast cancer xenograft)
HCI-011.E2 = system: HCI-011.E2 (organoid from an ER-positive breast cancer xenograft)
HCI-012 = system: HCI-012 (organoid from a breast cancer xenograft)
HCI-015 = system: HCI-015 (organoid from a triple-negative breast cancer xenograft)
HCI-027 = system: HCI-027 (organoid from a triple-negative breast cancer xenograft)

C[C@@H](Nc1cc(F)cc(F)c1)c1cc(C(=O)N(C)C)cc2c(=O)cc(N3CCOCC3)oc12 [AZD-8186]
CTG-3D luminescence at 96 h
Conditions	12.5 pM	0.00025 µM	0.005 µM	0.1 µM	1 µM	10 µM	100 µM	625 fM
HCI-002, days in culture: 127	2.49	2.9	3.08	3.46	2.69	2.62	1.37	2.78
HCI-002, days in culture: 155	4.16	4.76	5.31	5.43	4.16	3.89	1.67	4.15
HCI-002, days in culture: 168	3.35	3.58	4.3	3.62	3.22	2.87	0.73	4.14
HCI-011.E2, days in culture: 74	2.16	1.88	1.79	2.21	1.49	1.12	0.136	2.4
HCI-012, days in culture: 214	3.16	3.58	2.36	2.15	1.61	1.53	0.299	3
HCI-012, days in culture: 243	1.81	2.44	1.8	2.35	1.56	1.4	0.468	2.52
HCI-012, days in culture: 256	2.2	2.24	2.12	3.26	1.35	0.936	0.409	2.45
HCI-012, days in culture: 284	1.94	2.57	2.11	2.5	1.45	2.64	0.535	2.65
HCI-015, days in culture: 333	2.09	1.46	1.76	1.33	1.37	0.684	0.452	1.77
HCI-015, days in culture: 355	1.76	3.09	1.3	1.46	1.12	2.35	0.668	1.57
HCI-015, days in culture: 369	2.35	1.7	1.96	1.84	2.18	1.24	1.01	1.96
HCI-027, days in culture: 145	1.31	2.65	1.81	1.94	0.882	1.12	0.387	1.74
HCI-027, days in culture: 158	0.987	2.74	2.32	1.39	1.24	1.87	0.581	4.36
HCI-027, days in culture: 164	1.52	0.955	2.29	2.94	1.28	1.36	0.618	1.46
HCI-027, days in culture: 176	2.9	2.55	1.1	1.9	1.15	0.842	0.201	1.89
HCI-027, days in culture: 186	1.9	2.1	2.54	1.7	0.519	1.46	0.286	2.6

CTG-3D luminescence at 96 h
Conditions	12.5 pM	0.00025 µM	0.005 µM	0.1 µM	1 µM	10 µM	100 µM	625 fM
HCI-003.E2	2.53	2.56	2.18	2.38	2.13	1.28	0.0452	2.58
HCI-011.E2	1.45	1.9	1.54	1.81	1.47	1.01	0.293	2.13

Nc1cc(C(F)(F)F)c(-c2cc(N3CCOCC3)nc(N3CCOCC3)n2)cn1 [buparlisib]
CTG-3D luminescence at 96 h
Conditions	12.5 pM	0.00025 µM	0.005 µM	0.1 µM	1 µM	10 µM	100 µM	625 fM
HCI-002, days in culture: 127	2.59	2.87	2.94	3.16	2.14	0.496	0.461	2.98
HCI-002, days in culture: 155	5.8	5.75	6.05	5.13	3.11	0.466	0.411	4.41
HCI-002, days in culture: 168	3.25	3.53	3.92	2.96	2.25	0.309	0.241	4.04
HCI-011.E2, days in culture: 74	2.23	1.9	1.83	2.23	0.711	0.135	0.0559	2.32
HCI-012, days in culture: 214	1.75	3.34	1.48	2.51	1.02	0.314	0.0491	2.11
HCI-012, days in culture: 243	1.8	2.97	2.35	2.4	1.59	0.242	0.0324	2.37
HCI-012, days in culture: 256	2.19	2.45	2.12	2.99	1.05	0.138	0.0266	1.97
HCI-012, days in culture: 284	1.86	2.37	1.96	2.4	1.3	0.282	0.0339	3.54
HCI-015, days in culture: 333	2.29	1.36	1.57	1.43	0.645	0.204	0.269	1.16
HCI-015, days in culture: 355	1.31	3.75	1.42	1.76	0.946	0.466	0.46	2.06
HCI-015, days in culture: 369	1.92	1.66	2.47	1.92	0.94	0.378	0.599	1.66
HCI-027, days in culture: 145	1.54	1.52	1.25	1.43	0.692	0.328	0.299	2.3
HCI-027, days in culture: 158	2.38	2.8	2.6	2.57	0.949	0.818	0.172	2.61
HCI-027, days in culture: 164	1.85	1.65	1.59	2.16	0.625	0.478	0.612	1.57
HCI-027, days in culture: 176	4.08	3.24	0.833	1.54	0.26	0.384	0.144	2.31
HCI-027, days in culture: 186	1.86	1.61	2.44	1.65	0.528	0.223	0.169	2.21

CTG-3D luminescence at 96 h
Conditions	12.5 pM	0.00025 µM	0.005 µM	0.1 µM	1 µM	10 µM	100 µM	625 fM
HCI-003.E2	2.55	2.29	2.6	2.53	0.705	0.037	0.0142	2.71
HCI-011.E2	1.59	1.75	1.23	1.38	0.772	0.191	0.0881	2.09

CC(C)n1nc(-c2ccc3oc(N)nc3c2)c2c(N)ncnc21 [sapanisertib]
CTG-3D luminescence at 96 h
Conditions	12.5 pM	0.00025 µM	0.005 µM	0.1 µM	1 µM	10 µM	100 µM	625 fM
HCI-002, days in culture: 127	2.42	2.94	2.62	1.76	0.875	0.742	0.27	3.04
HCI-002, days in culture: 155	5.75	5.31	5.49	2.38	1.32	0.875	0.163	4.67
HCI-002, days in culture: 168	3.37	3.2	3.78	1.61	0.882	0.787	0.155	4.04
HCI-011.E2, days in culture: 74	2.73	2.43	1.98	0.488	0.142	0.167	0.138	2.6
HCI-012, days in culture: 214	3	1.84	1.05	1.27	0.635	0.331	0.0967	2.11
HCI-012, days in culture: 243	1.95	2.36	1.77	1.16	0.476	0.522	0.156	3.05
HCI-012, days in culture: 256	2.05	2.28	2.44	1.31	0.395	0.305	0.171	2.12
HCI-012, days in culture: 284	1.65	2.83	1.59	1.13	0.451	0.248	0.147	3.7
HCI-015, days in culture: 333	1.82	1.45	1.21	0.567	0.461	0.114	0.0973	1.56
HCI-015, days in culture: 355	2.17	1.74	1.65	1.3	0.564	0.557	0.233	1.38
HCI-015, days in culture: 369	2.06	1.61	2.17	0.797	0.611	0.449	0.336	1.68
HCI-027, days in culture: 145	1.73	1.87	1.67	0.675	0.62	0.3	0.158	1.76
HCI-027, days in culture: 158	1.38	2.26	2.09	1.46	0.941	0.992	0.124	3.36
HCI-027, days in culture: 164	1.86	1.51	1.15	1.08	1.1	0.369	0.41	2.35
HCI-027, days in culture: 176	3.48	2.27	1.45	1.22	0.927	0.364	0.195	2.69
HCI-027, days in culture: 186	0.934	1.54	1.53	1.25	0.548	0.717	0.142	2.62

CTG-3D luminescence at 96 h
Conditions	12.5 pM	0.00025 µM	0.005 µM	0.1 µM	1 µM	10 µM	100 µM	625 fM
HCI-003.E2	2.44	2.37	2.1	0.144	0.0411	0.0196	0.00904	2.87
HCI-011.E2	1.55	1.65	0.974	0.413	0.187	0.228	0.277	1.96

CS(=O)(=O)CCNCc1ccc(-c2ccc3ncnc(Nc4ccc(OCc5cccc(F)c5)c(Cl)c4)c3c2)o1 [lapatinib]
CTG-3D luminescence at 96 h
Conditions	12.5 pM	0.00025 µM	0.005 µM	0.1 µM	1 µM	10 µM	100 µM	625 fM
HCI-002, days in culture: 127	2.38	2.9	2.7	3.41	2.39	1.07	0.00596	2.75
HCI-002, days in culture: 155	5.69	4.91	5.49	7.04	4.12	0.801	-0.00284	4.59
HCI-002, days in culture: 168	3.63	3.77	3.93	3.54	3.53	1.01	-0.0013	3.8
HCI-011.E2, days in culture: 74	2.75	2.14	2.07	2.34	1.66	0.607	-0.00505	2.76
HCI-012, days in culture: 214	2.69	3.04	1.24	2.07	1.18	0.474	0.0116	2.99
HCI-012, days in culture: 243	2.16	2.36	2.03	2.3	1.73	1.17	0.00575	2.33
HCI-012, days in culture: 256	1.96	2.5	2.14	2.69	1.63	1.22	0.0102	2.35
HCI-012, days in culture: 284	1.64	2.45	1.64	2.11	1.41	0.504	-0.00107	3.12
HCI-015, days in culture: 333	1.35	1.46	1.34	1.08	0.661	0.251	0.00814	2.63
HCI-015, days in culture: 355	3.61	3.24	1.08	1.64	1.45	0.567	0.0071	2.45
HCI-015, days in culture: 369	2.34	1.5	2.2	1.6	2.32	0.511	0.0242	1.79
HCI-027, days in culture: 145	1.6	2.25	1.81	1.29	0.739	0.0785	0.00359	2.05
HCI-027, days in culture: 158	1.68	2.65	3.39	2.02	2.72	0.902	0.00689	5.17
HCI-027, days in culture: 164	2.91	1.7	1.91	1.36	1.57	0.126	0.00219	1.64
HCI-027, days in culture: 176	4.02	2.45	1.33	2.41	1.57	0.0427	0.00427	1.78
HCI-027, days in culture: 186	1.46	2.11	2.88	2.74	0.49	0.0763	0.00176	2.77

CTG-3D luminescence at 96 h
Conditions	12.5 pM	0.00025 µM	0.005 µM	0.1 µM	1 µM	10 µM	100 µM	625 fM
HCI-003.E2	2.53	2.41	2.48	2.27	1.77	0.0655	0.000467	2.95
HCI-011.E2	1.6	1.63	1.26	1.72	1.57	0.982	0.0218	2.23
